Target: T1, Itk (Homo sapiens, UniProt Q08881)
T1 sequence (Q08881 1-620): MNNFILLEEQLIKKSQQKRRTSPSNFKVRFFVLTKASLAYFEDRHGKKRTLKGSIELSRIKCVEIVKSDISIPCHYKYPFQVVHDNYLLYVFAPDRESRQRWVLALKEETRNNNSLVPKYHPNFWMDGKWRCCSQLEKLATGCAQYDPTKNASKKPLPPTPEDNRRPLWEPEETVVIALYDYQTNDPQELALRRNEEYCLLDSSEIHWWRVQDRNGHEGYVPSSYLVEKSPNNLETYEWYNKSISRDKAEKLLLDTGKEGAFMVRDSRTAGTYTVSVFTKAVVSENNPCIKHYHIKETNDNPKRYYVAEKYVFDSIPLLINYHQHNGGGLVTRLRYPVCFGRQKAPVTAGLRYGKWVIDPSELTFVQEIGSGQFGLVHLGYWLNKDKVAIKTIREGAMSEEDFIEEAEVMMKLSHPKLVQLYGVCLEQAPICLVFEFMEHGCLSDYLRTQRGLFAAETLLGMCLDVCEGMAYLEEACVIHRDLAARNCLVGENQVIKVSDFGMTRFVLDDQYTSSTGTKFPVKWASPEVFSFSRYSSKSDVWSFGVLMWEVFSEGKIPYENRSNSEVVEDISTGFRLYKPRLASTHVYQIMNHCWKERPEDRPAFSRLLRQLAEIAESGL
Experiment: Itk inhibition assay: spectrophotometric coupled enzyme (Method C)
Format: biochemical
Conditions: 100 μM ATP, read-out: Ki in the standard coupled enzyme assay (Method C)
Method: The compounds of the present invention were evaluated as inhibitors of human Itk kinase using either a radioactivity-based, spectrophotometric or alphascreen assay.
Compounds were screened for their ability to inhibit Itk using a standard coupled enzyme assay (Fox et al., Protein Sci., (1998) 7, 2249).
Assays were carried out in a mixture of 20 mM MOPS (pH 7.0), 10 mM MgCl2, 0.1% BSA, 1 mM DTT, 2.5 mM phosphoenolpyruvate, 300 μM NADH, 30 μg/ml pyruvate kinase and 10 μg/ml lactate dehydrogenase. Final substrate concentrations in the assay were 100 μM ATP (Sigma Chemicals) and 3 μM peptide (Biotinylated SAM68 Δ332-443). Assays were carried out at 25° C. and in the presence of 10 nM Itk.
An assay stock buffer solution was prepared containing all of the reagents listed above, with the exception of ATP and the test compound of interest. 60 μl of the stock solution was placed in a 96 well plate followed by addition of 2 μl of DMSO stock containing serial dilutions of the test compound (typically starting from a final concentration of 15 μM). The plate was preincubated for 10 minutes at 25° C. and the reaction initiated by addition of 5 μl of ATP. Initial reaction rates were determined with a Molecular Devices SpectraMax Plus plate reader over a 10 minute time course. IC50 and Ki data were calculated from non-linear regression analysis using the Prism software package (GraphPad Prism version 3.0cx for Macintosh, GraphPad Software, San Diego Calif., USA).

Ki | Compound
< 1000 nM | CC(=O)NCCNC(=O)c1cc2c(ccc3cnc(Nc4cccc(S(C)(=O)=O)c4)nc32)s1 [Compound V-135]
< 1000 nM | CC(=O)N1CCC(CNC(=O)c2cc3c(ccc4cnc(Nc5cccc(C(C)(C)C)c5)nc43)s2)CC1 [Compound V-118]
< 1000 nM | O=C(c1cc2c(ccc3cnc(NCCc4c[nH]cn4)nc32)s1)N1CCNCC1 [Compound V-178]
< 1000 nM | O=C(c1cc2c(ccc3cnc(Nc4cccc(N5CCNCC5)c4)nc32)s1)N1CCNCC1 [Compound V-113]
< 1000 nM | COCCNC(=O)c1cc2c(ccc3cnc(Nc4cccc(S(C)(=O)=O)c4)nc32)s1 [Compound V-134]
< 1000 nM | CS(=O)(=O)c1cccc(Nc2ncc3ccc4sc(C(=O)NCCO)cc4c3n2)c1 [Compound V-133]
< 1000 nM | O=C(c1cc2c(ccc3cnc(N[C@H]4C[C@@H]4c4ccccc4)nc32)s1)N1CCNCC1 [Compound V-127]
< 1000 nM | O=C(c1cc2c(ccc3cnc(NC4Cc5ccccc5C4)nc32)s1)N1CCNCC1 [Compound V-172]
< 1000 nM | CC(C)(C)c1cccc(Nc2ncc3ccc4sc(C(=O)N5CCCNCC5)cc4c3n2)c1 [Compound V-109]
< 1000 nM | COC[C@H]1CCCN1C(=O)c1cc2c(ccc3cnc(Nc4cccc(S(C)(=O)=O)c4)nc32)s1 [Compound V-155]
< 1000 nM | CS(=O)(=O)c1cccc(Nc2ncc3ccc4sc(C(=O)N5CCC(O)CC5)cc4c3n2)c1 [Compound V-154]
< 1000 nM | O=C(c1cc2c(ccc3cnc(NCCc4ccccc4)nc32)s1)N1CCNCC1 [Compound V-125]
< 1000 nM | CC(C)(C)OC(=O)NC1CCN(C(=O)c2cc3c(ccc4cnc(Nc5cccc(-c6ccccc6)c5)nc43)s2)C1 (stereo not drawn) [Compound V-60]
< 1000 nM | O=C(c1cc2c(ccc3cnc(Nc4ccc(N5CCNCC5)cc4)nc32)s1)N1CCNCC1 [Compound V-115]
< 1000 nM | CN1CCN(C(=O)c2cc3c(ccc4cnc(Nc5cccc(-c6ccccc6)c5)nc43)s2)CC1 [Compound V-59]
< 1000 nM | O=C(CCN1CCCCC1)Nc1cccc(Nc2ncc3ccc4sc(C(=O)N5CCOCC5)cc4c3n2)c1 [Compound V-67]
< 1000 nM | CS(=O)(=O)c1cccc(Nc2ncc3ccc4sc(C(=O)NCc5ccccc5)cc4c3n2)c1 [Compound V-129]
< 1000 nM | O=C(c1cc2c(ccc3cnc(Nc4cccc(Cc5ccccc5)c4)nc32)s1)N1CCNCC1 [Compound V-87]
< 1000 nM | O=C(c1cc2c(ccc3cnc(Nc4cccc(Br)c4)nc32)s1)N1CCNCC1 [Compound V-89]
< 1000 nM | CS(=O)(=O)c1cccc(Nc2ncc3ccc4sc(C(=O)N5CCNC(=O)C5)cc4c3n2)c1 [Compound V-131]
< 1000 nM | CC(C)(C)c1cccc(Nc2ncc3ccc4sc(C(=O)N5CCOCC5)cc4c3n2)c1 [Compound V-55]
< 1000 nM | CC1CC(C)CN(CCC(=O)Nc2cccc(Nc3ncc4ccc5sc(C(=O)N6CCOCC6)cc5c4n3)c2)C1 (stereo not drawn) [Compound V-78]
< 1000 nM | CS(=O)(=O)c1cccc(Nc2ncc3ccc4sc(C(=O)N5CCNCC5)cc4c3n2)c1 [Compound V-100]
< 1000 nM | CN(C)CCC(=O)Nc1cccc(Nc2ncc3ccc4sc(C(=O)N5CCOCC5)cc4c3n2)c1 [Compound V-71]
< 1000 nM | O=C(c1cc2c(ccc3cnc(Nc4cccc(-c5ccccc5)c4)nc32)s1)N1CCOCC1 [Compound V-58]
< 1000 nM | CS(=O)(=O)c1cccc(Nc2ncc3ccc4sc(C(=O)N5CCC(O)C5)cc4c3n2)c1 (stereo not drawn) [Compound V-156]
< 1000 nM | O=C(c1cc2c(ccc3cnc(NCCCc4ccccc4)nc32)s1)N1CCNCC1 [Compound V-170]
< 1000 nM | CC(C)Oc1cccc(Nc2ncc3ccc4sc(C(=O)N5CCC(N)C5)cc4c3n2)c1 (stereo not drawn) [Compound V-103]
< 1000 nM | NC1CCN(C(=O)c2cc3c(ccc4cnc(Nc5cccc(Oc6ccccc6)c5)nc43)s2)C1 (stereo not drawn) [Compound V-85]
< 1000 nM | CS(=O)(=O)c1cccc(Nc2ncc3ccc4sc(C(=O)N5CCCNCC5)cc4c3n2)c1 [Compound V-136]

From US7700609B2, “Compositions useful as inhibitors of protein kinases” (Vertex Pharmaceuticals Incorporated, priority 2003, dated 2010)
